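Interpolation was linear, between the two tested concentrations surrounding the appropriate level; five concentrations were tested over 48 hours in 96-well plates. Definition used: TGI = concentration required for complete inhibition of growth.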 Where a SMILES comes first, the peptide text is derived from it.
Columns and labels:
Experiment in all cases: inhibition of tumour cell growth, NCI panel, 48 h
[1] = test system: BT-549 breast
[2] = test system: OVCAR-8 ovarian
[3] = test system: HCC-2998 colon
[4] = test system: SK-MEL-28 melanoma
[5] = test system: 786-0 renal
[6] = test system: DU-145 prostate
[7] = test system: MDA-MB-435
[8] = test system: CAKI-1 renal
[9] = test system: NCI-H23 lung
[10] = test system: SN12C renal
[11] = test system: MDA-N
[12] = test system: MDA-MB-231 breast
[13] = test system: OVCAR-4 ovarian
[14] = test system: RXF 393 renal
[15] = test system: PC-3 prostate
[16] = test system: UACC-62 melanoma
[17] = test system: OVCAR-3 ovarian
[18] = test system: HCT-15 colon
[19] = test system: A549 NSCLC
[20] = test system: COLO 205 colon
[21] = test system: M14 melanoma
[22] = test system: SW-620 colon
[23] = test system: SNB-19 CNS
[24] = test system: UACC-257 melanoma
[25] = test system: NCI-H522 lung
[26] = test system: SF-268 CNS
[27] = test system: OVCAR-5 ovarian
[28] = test system: NCI-H460 lung
[29] = test system: MCF7 breast
[30] = test system: MALME-3M melanoma
[31] = test system: UO-31 renal
[32] = test system: NCI/ADR-RES ovarian
[33] = test system: KM12 colon
[34] = test system: SK-MEL-2 melanoma
[35] = test system: T-47D breast
[36] = test system: HL-60(TB) leukemia
[37] = test system: ACHN renal
[38] = test system: EKVX NSCLC
[39] = test system: SK-MEL-5 melanoma
[40] = test system: IGROV1 ovarian
[41] = test system: RPMI-8226 leukemia
[42] = test system: A498 renal
[43] = test system: U251 CNS
[44] = test system: HOP-62 NSCLC
[45] = test system: NCI-H226 lung
[46] = test system: SF-539 CNS
[47] = test system: HCT-116 colon
[48] = test system: LOX IMVI melanoma
[49] = test system: SK-OV-3 ovarian
[50] = test system: HS 578T breast
[51] = test system: CCRF-CEM leukemia
[52] = test system: TK-10 renal
[53] = test system: SF-295 CNS
[54] = test system: MOLT-4 leukemia
[55] = test system: SNB-75 CNS
[56] = test system: HOP-92 NSCLC
[57] = test system: HT29 colon
[58] = test system: SR leukemia
[59] = test system: K-562 leukemia
[60] = test system: SNB-78 CNS
[61] = test system: HOP-18 NSCLC
[62] = test system: DMS 273 small cell lung
[63] = test system: LXFL 529 NSCLC
[64] = test system: DLD-1 colon
[65] = test system: KM20L2 colon
[66] = test system: M19-MEL melanoma
[67] = test system: DMS 114 small cell lung

## CN(C)CCn1c(=O)c2ccc3c4c(nn3CCN(C)C)c3cc([N+](=O)[O-])ccc3n(c1=O)c24
[1]
  TGI: 3.34 µM
[2]
  TGI: 0.959 µM
[3]
  TGI: 0.207 µM
[4]
  TGI: 2.93 µM
[5]
  TGI: 0.277 µM
[6]
  TGI: 1.2 µM
[7]
  TGI: 0.219 µM
[8]
  TGI: 0.275 µM
[9]
  TGI: 0.397 µM
[10]
  TGI: 0.429 µM
[11]
  TGI: 0.243 µM
[12]
  TGI: 0.491 µM
[13]
  TGI: 0.223 µM
[14]
  TGI: 0.434 µM
[15]
  TGI: 0.576 µM
[16]
  TGI: 0.952 µM
[17]
  TGI: 2.26 µM
[18]
  TGI: 0.745 µM
[19]
  TGI: 1.23 µM
[20]
  TGI: 0.297 µM
[21]
  TGI: 1.29 µM
[22]
  TGI: 0.979 µM
[23]
  TGI: 1.08 µM
[24]
  TGI: 1.99 µM
[25]
  TGI: 0.2 µM
[26]
  TGI: 0.942 µM
[27]
  TGI: 0.448 µM
[28]
  TGI: 0.176 µM
[29]
  TGI: 0.65 µM
[30]
  TGI: 1.12 µM
[31]
  TGI: 0.363 µM
[32]
  TGI: 0.701 µM
[33]
  TGI: 0.433 µM
[34]
  TGI: 0.31 µM
[35]
  TGI: 10.8 µM
[36]
  TGI: 0.638 µM
[37]
  TGI: 0.975 µM
[38]
  TGI: 0.434 µM
[39]
  TGI: 1.98 µM
[40]
  TGI: 4.5 µM
[41]
  TGI: 0.397 µM
[42]
  TGI: 1.68 µM
[43]
  TGI: 2.94 µM
[44]
  TGI: 0.974 µM
[45]
  TGI: 2.35 µM
[46]
  TGI: 2.83 µM
[47]
  TGI: 0.325 µM
[48]
  TGI: 1.16 µM
[49]
  TGI: 0.959 µM
[50]
  TGI: 2.82 µM
[51]
  TGI: 0.417 µM
[52]
  TGI: 2.01 µM
[53]
  TGI: 1.05 µM

## CC(C)CC(NC(=O)C(Cc1ccccc1)NC(=O)C(Cc1c[nH]c2ccccc12)NC(=O)CNC(=O)C(N)Cc1ccc(O)cc1)C(=O)O (stereo not given) (H-YGWFL-OH; configuration not given here)
[1]
  TGI: > 100 µM
[2]
  TGI: > 100 µM
[3]
  TGI: 60.2 µM
[4]
  TGI: > 100 µM
[5]
  TGI: 49.4 µM
[6]
  TGI: > 100 µM
[7]
  TGI: > 100 µM
[8]
  TGI: > 100 µM
[9]
  TGI: > 100 µM
[10]
  TGI: > 100 µM
[11]
  TGI: > 100 µM
[12]
  TGI: > 100 µM
[54]
  TGI: > 100 µM
[13]
  TGI: > 100 µM
[55]
  TGI: 93.9 µM
[14]
  TGI: > 100 µM
[15]
  TGI: > 100 µM
[16]
  TGI: > 100 µM
[17]
  TGI: 57 µM
[18]
  TGI: > 100 µM
[19]
  TGI: > 100 µM
[20]
  TGI: 32.9 µM
[21]
  TGI: > 100 µM
[23]
  TGI: > 100 µM
[24]
  TGI: > 100 µM
[25]
  TGI: 95.6 µM
[56]
  TGI: 42.1 µM
[26]
  TGI: > 100 µM
[27]
  TGI: > 100 µM
[28]
  TGI: > 100 µM
[29]
  TGI: > 100 µM
[30]
  TGI: 72.3 µM
[31]
  TGI: > 100 µM
[32]
  TGI: > 100 µM
[57]
  TGI: > 100 µM
[33]
  TGI: 57.4 µM
[34]
  TGI: > 100 µM
[35]
  TGI: 72.9 µM
[36]
  TGI: 60.9 µM
[37]
  TGI: > 100 µM
[38]
  TGI: 73.6 µM
[39]
  TGI: > 100 µM
[40]
  TGI: > 100 µM
[41]
  TGI: 57.4 µM
[42]
  TGI: 96 µM
[43]
  TGI: > 100 µM
[44]
  TGI: > 100 µM
[45]
  TGI: > 100 µM
[46]
  TGI: 87 µM
[47]
  TGI: 70.6 µM
[49]
  TGI: > 100 µM
[50]
  TGI: > 100 µM
[58]
  TGI: > 100 µM
[51]
  TGI: > 100 µM
[52]
  TGI: > 100 µM
[53]
  TGI: 88.6 µM

## C=C(C)C(O)C(O)C[C@@H](C)C1CC[C@]23C[C@]12CCC1[C@@]2(C)CCC(OC(C)=O)C(C)(C)C2CC(OC2OC(CO)C(O)C(O)C2O)[C@]13C (stereo not given in full)
[1]
  TGI: 27.6 µM
[2]
  TGI: 37.1 µM
[3]
  TGI: 29.1 µM
[4]
  TGI: 37.1 µM
[5]
  TGI: 35.1 µM
[6]
  TGI: 43.3 µM
[7]
  TGI: 31.7 µM
[8]
  TGI: > 100 µM
[9]
  TGI: 41.6 µM
[10]
  TGI: 30.9 µM
[11]
  TGI: 31.1 µM
[12]
  TGI: 28.2 µM
[54]
  TGI: 38.3 µM
[13]
  TGI: 41.8 µM
[55]
  TGI: 43 µM
[14]
  TGI: 29.3 µM
[15]
  TGI: 34.7 µM
[16]
  TGI: 31.8 µM
[17]
  TGI: 32.3 µM
[18]
  TGI: > 100 µM
[19]
  TGI: > 100 µM
[20]
  TGI: 31.5 µM
[21]
  TGI: 28.4 µM
[22]
  TGI: 30.8 µM
[23]
  TGI: 45.1 µM
[24]
  TGI: 31.4 µM
[25]
  TGI: 30.7 µM
[56]
  TGI: 25.7 µM
[26]
  TGI: 33 µM
[27]
  TGI: 45.9 µM
[28]
  TGI: 34.5 µM
[29]
  TGI: 31 µM
[30]
  TGI: 32.3 µM
[31]
  TGI: > 100 µM
[32]
  TGI: > 100 µM
[59]
  TGI: 46.6 µM
[57]
  TGI: 33.6 µM
[33]
  TGI: 31.8 µM
[34]
  TGI: 30.6 µM
[35]
  TGI: 31.6 µM
[36]
  TGI: 36.7 µM
[37]
  TGI: > 100 µM
[38]
  TGI: > 100 µM
[39]
  TGI: 33.1 µM
[40]
  TGI: 28.8 µM
[41]
  TGI: 46.5 µM
[43]
  TGI: 29.1 µM
[44]
  TGI: 31.9 µM
[45]
  TGI: 39.9 µM
[46]
  TGI: 27.8 µM
[47]
  TGI: 29.5 µM
[48]
  TGI: 32.3 µM
[49]
  TGI: 45.7 µM
[50]
  TGI: 39.6 µM
[58]
  TGI: 36.3 µM
[51]
  TGI: 31.2 µM
[52]
  TGI: 56.2 µM
[53]
  TGI: 36.7 µM

## CCN(CC)C(=O)N1CCN(C=S)CC1
[2]
  TGI: > 100 µM
[60]
  TGI: > 100 µM
[3]
  TGI: > 100 µM
[4]
  TGI: > 100 µM
[5]
  TGI: > 100 µM
[61]
  TGI: > 100 µM
[9]
  TGI: > 100 µM
[10]
  TGI: > 100 µM
[54]
  TGI: > 100 µM
[13]
  TGI: > 100 µM
[62]
  TGI: > 100 µM
[55]
  TGI: > 100 µM
[14]
  TGI: > 100 µM
[16]
  TGI: > 100 µM
[17]
  TGI: > 100 µM
[18]
  TGI: > 100 µM
[19]
  TGI: > 100 µM
[20]
  TGI: > 100 µM
[21]
  TGI: > 100 µM
[22]
  TGI: > 100 µM
[63]
  TGI: > 100 µM
[23]
  TGI: > 100 µM
[24]
  TGI: > 100 µM
[25]
  TGI: > 100 µM
[64]
  TGI: > 100 µM
[26]
  TGI: > 100 µM
[27]
  TGI: > 100 µM
[28]
  TGI: > 100 µM
[30]
  TGI: > 100 µM
[31]
  TGI: > 100 µM
[59]
  TGI: > 100 µM
[65]
  TGI: > 100 µM
[57]
  TGI: > 100 µM
[33]
  TGI: > 100 µM
[34]
  TGI: > 100 µM
[36]
  TGI: > 100 µM
[37]
  TGI: > 100 µM
[38]
  TGI: > 100 µM
[39]
  TGI: > 100 µM
[40]
  TGI: > 100 µM
[42]
  TGI: > 100 µM
[43]
  TGI: > 100 µM
[66]
  TGI: > 100 µM
[44]
  TGI: > 100 µM
[45]
  TGI: > 100 µM
[46]
  TGI: > 100 µM
[47]
  TGI: > 100 µM
[48]
  TGI: > 100 µM
[49]
  TGI: > 100 µM
[58]
  TGI: > 100 µM
[51]
  TGI: > 100 µM
[67]
  TGI: > 100 µM
[52]
  TGI: > 100 µM

Reference: PubChem BioAssay (NCI)
